Assay results reported in patent US20170073445A1, “PHOTOPOLYMERIZABLE COMPOSITION, PHOTOPOLYMERIZABLE INK, COMPOSITION CONTAINER, IMAGE OR CURED PRODUCT FORMING METHOD, IMAGE OR CURED PRODUCT FORMING DEVICE, AND IMAGE OF CURED PRODUCT” (priority 2014, published 2017).

What was measured:
[1] = Viscosity by cone-plate rotor viscometer (25° C. or 60° C.); assay type: physicochemical; details: monomer per se
Protocol: Note that, a viscosity of the low viscous monofunctional monomer per se is preferably 3 mPa·s or less at 25° C., more preferably about 1 mPa·s or less at 25° C. The viscosity can be measured by means of a cone-plate rotor viscometer, VISCOMETER TV-22, manufactured by Toki Sangyo Co., Ltd., using a corn rotor (1° 34′×R24) at the rotational speed of 50 rpm, with setting the temperature of constant-temperature circulating water to 25° C.
The viscosity is measured by means of a cone-plate rotor viscometer, VISCOMETER TV-22, manufactured by Toki Sangyo Co., Ltd., using a corn rotor (1° 34′×R24) at the rotational speed of 50 rpm, with setting the temperature of constant-temperature circulating water to 25° C. or 60° C. As for the adjustment of the temperature of the circulating water, VISCOMATE VM-150III is used. […]
(A): t-butylmethacrylate, “Acryester TB” manufactured by MITSUBISHI RAYON CO., LTD. (negative), evaluated with the literature (test method: maximization method, viscosity at 25° C.: 0.9 mPa·s). The viscosity was measured by means of a cone-plate rotor viscometer, VISCOMETER TV-22, manufactured by Toki Sangyo Co., Ltd., using a corn rotor (1° 34′×R24) at the rotational speed of 50 rpm, with setting the temperature of constant-temperature circulating water to 25° C.

female mice = assay: Skin sensitization test, local lymph node assay (LLNA), SI value; assay type: in vivo; details: test substance 50.0 w/v % in acetone:olive oil 4:1, applied to both auricles once a day for three days
From the text: (1) A compound having a Stimulation Index (SI value) of less than 3, where the Stimulation Index indicates the level of sensitization as measured by a skin sensitization test based on the LLNA (Local Lymph Node Assay).
Regarding the above (1), the compound having a SI value of less than 3 is considered as being negative for skin sensitization as described in literatures, for example, “Functional Material” (Kino Zairyou) September, 2005, Vol. 25, No. 9, p. 55. The lower Si value means lower skin sensitization. In the present invention, therefore, a photopolymerizable monomer having lower SI value is preferably used. The SI value is preferably less than 3, more preferably 2 or less, and even more preferably 1.6 or less.
According to the skin sensitization test of local lymph node assay (LLNA), the SI value was measured in the following manner. […]
Based on the body weights measured 2 days before the initiation of sensitization, they were categorized into 2 groups (4 mice/group) by the body weight stratified random sampling method so that the body weight of each individual was within plus or minus 20%. […]
About 24 hours after the administration of BrdU, the used animals were allowed to undergo euthanasia, and their auricular lymph nodes were sampled. […] Also, the average of the weights of the auricular lymph nodes and the standard error thereof were calculated for each group. […]

[2] = in vivo; cited from earlier work

Compound: C=C(C)C(=O)OCCCCC [n-pentyl methacrylate]
- viscosity at 25° C. [1]: 1 mPa·s

Compound: tricyclodecane dimethanol dimethacrylate
- SI value (Stimulation Index) in the LLNA test (female mice): 1.3

Compound: C=C(C)C(=O)OCC(CO)OC(=O)C(=C)C (centres unmarked) [glycerol dimethacrylate]
- SI value (Stimulation Index) in the LLNA test (female mice): 1.2

Compound: O=C(c1ccccc1)C1(O)CCCCC1 [1-hydroxy-cyclohexylphenylketone]
- Skin sensitization, evaluated with MSDS [2]: no

Compound: C=C(C)C(=O)OC(C)(C)C [t-butylmethacrylate]
- viscosity at 25° C. [1]: 0.9 mPa·s
